Reference: patent publication US20100267561A1, “HERBICIDAL PYRIDAZINONE DERIVATIVES” (priority 2007, published 2010)

Assays:
Assay type in all cases: in vivo
[1] = tested on: surinam grass (Brachiaria decumbens); assay: Test B pre-/postemergence plant response; settings: for Surinam Grass plant response rating: 8 g ai/ha
Summary of the method: (§1)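 Preemergence and postemergence (plants 2-18 cm, 1- to 4-leaf stage) applications used test chemicals in a non-phytotoxic solvent with surfactant. Plants were held in a greenhouse 13 to 15 days, then rated visually against controls on a 0-100 scale (0 no effect, 100 complete control).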

[2] = tested on: johnsongrass (Sorghum halepense); assay: Test B pre-/postemergence plant response; settings: for Johnsongrass plant response rating: 8 g ai/ha
Summary of the method: as §1

[3] = tested on: pigweed (Amaranthus retroflexus); assay: Test C pre-/postemergence plant response; settings: Preemergence
Summary of the method: (§2)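 Both preemergence (to planted seed) and postemergence (to plants 2–18 cm high, 1- to 4-leaf) applications used test chemicals in a non-phytotoxic solvent mixture containing surfactant. Evaluation: visual comparison with controls after 15 to 25 days; 0 means no effect, 100 complete control.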

[4] = tested on: blackgrass (Alopecurus myosuroides); assay: Test C pre-/postemergence plant response; settings: Preemergence
Summary of the method: as §2

[5] = tested on: annual bluegrass (Poa annua); assay: Test C pre-/postemergence plant response; settings: Preemergence
Summary of the method: as §2

[6] = tested on: downy bromegrass (Bromus tectorum); assay: Test C pre-/postemergence plant response; settings: Preemergence
Summary of the method: as §2

[7] = tested on: wild mustard (Sinapis arvensis); assay: Test C pre-/postemergence plant response; settings: Preemergence
Summary of the method: as §2

wild oat (Avena fatua) = assay: Test C pre-/postemergence plant response; settings: Preemergence
Summary of the method: as §2

[8] = tested on: green foxtail (Setaria viridis); assay: Test C pre-/postemergence plant response; settings: Preemergence
Summary of the method: as §2

[9] = tested on: windgrass (Apera spica-venti); assay: Test C pre-/postemergence plant response; settings: Preemergence
Summary of the method: as §2

[10] = tested on: canarygrass (Phalaris minor); assay: Test C pre-/postemergence plant response; settings: Preemergence
Summary of the method: as §2

[11] = tested on: winter wheat (Triticum aestivum); assay: Test C pre-/postemergence plant response; settings: Preemergence
Summary of the method: as §2

[12] = tested on: spring barley (Hordeum vulgare); assay: Test C pre-/postemergence plant response; settings: Preemergence
Summary of the method: as §2

[13] = Postemergence, 16 g ai/ha, scale 0 to 100
[14] = Postemergence, 62 g ai/ha, scale 0 to 100, 0 no effect, 100 complete control
[15] = Preemergence, 16 g ai/ha, scale 0 to 100 (0 no effect, 100 complete control)
[16] = Preemergence, 31 g ai/ha, 0 to 100 scale, 0 no effect, 100 complete control
[17] = Preemergence, 62 g ai/ha, scale 0 to 100
[18] = 8 g ai/ha, scale 0 to 100 (0 no effect, 100 complete control)
[19] = 16 g ai/ha, scale 0 to 100 (0 no effect, 100 complete control)
[20] = 31 g ai/ha, scale 0 to 100 (0 no effect, 100 complete control)
[21] = 62 g ai/ha, scale 0 to 100, 0 no effect, 100 complete control

Compound: Cn1ncc(O)c(-c2nn(-c3ccc(Cl)cc3)cc2Cl)c1=O [Compound 28]
- Surinam Grass plant response rating ([1]; postemergence, 0-100 scale): 65
- Plant response rating, Surinam Grass [1, 13]: 65
- Plant response rating, Surinam Grass [1, 14]: 90
- Plant response rating, Surinam Grass [1, 15]: 65
- Plant response rating, Surinam Grass [1, 16]: 98
- Plant response rating, Surinam Grass [1, 17]: 100
- Surinam Grass plant response rating ([1]; Preemergence, scale 0 to 100): 0
- Johnsongrass plant response rating ([2]; postemergence, 0-100 scale): 20
- Plant response rating, Johnsongrass [2, 13]: 65
- Plant response rating, Johnsongrass ([2]; Postemergence, 31 g ai/ha, scale 0 to 100, 0 no effect, 100 complete control): 75
- Plant response rating, Johnsongrass [2, 14]: 98
- Plant response rating, Johnsongrass [2, 15]: 85
- Plant response rating, Johnsongrass [2, 16]: 98
- Plant response rating, Johnsongrass [2, 17]: 100
- Johnsongrass plant response rating ([2]; Preemergence, scale 0 to 100): 70
- Plant response rating, Pigweed [3, 18]: 0
- Plant response rating, Pigweed [3, 19]: 0
- Plant response rating, Pigweed [3, 20]: 0
- Plant response rating, Pigweed [3, 21]: 0
- Plant response rating, Blackgrass [4, 18]: 0
- Plant response rating, Blackgrass [4, 19]: 5
- Plant response rating, Blackgrass [4, 20]: 15
- Plant response rating, Blackgrass [4, 21]: 85
- Plant response rating, Bluegrass [5, 18]: 0
- Plant response rating, Bluegrass [5, 19]: 0
- Plant response rating, Bluegrass [5, 21]: 50
- Plant response rating, Bromegrass, Downy [6, 18]: 0
- Plant response rating, Bromegrass, Downy [6, 19]: 0
- Plant response rating, Bromegrass, Downy [6, 20]: 20
- Plant response rating, Bromegrass, Downy [6, 21]: 75
- Plant response rating, Mustard, Wild [7, 18]: 0
- Plant response rating, Mustard, Wild [7, 19]: 0
- Plant response rating, Mustard, Wild [7, 20]: 0
- Plant response rating, Mustard, Wild [7, 21]: 0
- Plant response rating, Oat, Wild (wild oat (Avena fatua); [18]): 0
- Plant response rating, Oat, Wild (wild oat (Avena fatua); [19]): 0
- Plant response rating, Oat, Wild (wild oat (Avena fatua); [20]): 20
- Plant response rating, Oat, Wild (wild oat (Avena fatua); [21]): 75
- Plant response rating, Foxtail, Green [8, 18]: 0
- Plant response rating, Foxtail, Green [8, 19]: 20
- Plant response rating, Foxtail, Green [8, 20]: 100
- Plant response rating, Foxtail, Green [8, 21]: 100
- Plant response rating, Windgrass [9, 18]: 20
- Plant response rating, Windgrass [9, 19]: 30
- Plant response rating, Windgrass [9, 20]: 75
- Plant response rating, Windgrass [9, 21]: 85
- Plant response rating, Canarygrass [10, 18]: 0
- Plant response rating, Canarygrass [10, 19]: 0
- Plant response rating, Canarygrass [10, 20]: 10
- Plant response rating, Canarygrass [10, 21]: 90
- Plant response rating, Wheat, Winter [11, 18]: 0
- Plant response rating, Wheat, Winter [11, 19]: 10
- Plant response rating, Wheat, Winter [11, 20]: 30
- Plant response rating, Wheat, Winter [11, 21]: 60
- Plant response rating, Barley, Spring [12, 18]: 0
- Plant response rating, Barley, Spring [12, 19]: 15
- Plant response rating, Barley, Spring [12, 20]: 15
- Plant response rating, Barley, Spring [12, 21]: 25
